One assay relates to HCT116 WT cells. Description: HCT116 WT cell line proliferation (CellTiter-Glo cell viability, 6 days). In kind it is cell-based. The conditions noted are these: read-out: HCT-116 WT IC50. In a few lines:
(§1)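 Isogenic HCT116 pair (both MTAP alleles knocked out vs parent) in RPMI 1640 + 10% FBS, seeded overnight at 37° C, 5% CO2, then exposed 6 days to 8- or 9-point 1:3 dilutions from 1 or 10 μM. CellTiter-Glo luminescence; IC50 from sigmoidal fit, Hill slope fixed −1, top 100%, or 4-parameter logistic.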
(ATP-based viability assays read luminescence as a measure of living cells.)

For another assay, the system named is HCT116 MTAP null cells. Nature of the assay: HCT116 MTAP null cell line proliferation (CellTiter-Glo cell viability, 6 days). In kind it is cell-based. Particulars: read-out: HCT-116 MTAP null IC50. In a few lines: as §1
[1] abbreviates: Homo sapiens, HCT-116, 144 h, HCT116 WT (parent) cells, 6 days of treatment, CellTiter-Glo cell viability.
Where [2] appears, read: HCT116-MTAP null, 144 h, HCT116 MTAP null cells, 6 days of treatment, CellTiter-Glo cell viability.
The mark [3] stands for this setting: HCT116 WT (parent) cells, 6 days of treatment, CellTiter-Glo cell viability.
Setting [4] is: HCT116 MTAP null cells, 6 days of treatment, CellTiter-Glo cell viability.

IC50 data for 21 compounds are collected here from patent US11845760B2, “PRMT5 inhibitors” (AMGEN INC., priority 2020, dated 2023).

Structures are written as SMILES. Where two headings read alike, the source gives them in different places.

Take `Nc1nc2cnc(C(=S)N3CCOC[C@@H]3c3ccc(C(F)(F)F)cc3)cc2c2c1COC2` [Example 626, (4-amino-1,3-dihydrofuro[3,4-c][1,7]naphthyridin-8-yl)((3S)-3-(4-(trifluoromethyl)phenyl)-4-morpholinyl)methanethione]: the IC50 – broadly, the concentration that inhibits the measured activity by half – with HCT116 WT cells (setting [1]) amounted to 12.9 µM; with HCT116 MTAP null cells (setting [2]) it was 394 nM.

For the compound `C[C@@H]1CN(C(=O)c2ccc3nc(N)c4c(c3c2)COC4)[C@@H](c2ccc(OC(F)(F)F)cc2)CO1` (single isomer, unassigned) [Example 585], the IC50 in the assay with HCT116 WT cells (setting [1]) is greater than 10 µM; with HCT116 MTAP null cells (setting [2]) it was greater than 1000 nM.

With `C[C@H]1OCc2c1c(N)nc1cnc(C(=O)N3CCOC[C@@H]3c3ccc(C(F)(F)F)cc3)cc21` (racemic) [Example 338, ((3R)-4-amino-3-methyl-1,3-dihydrofuro[3,4-c][1,7]naphthyridin-8-yl)((3S)-3-(4-(trifluoromethyl)phenyl)-4-morpholinyl)methanone and ((3S)-((4-amino-3-methyl-1,3-dihydrofuro[3,4-c][1,7]naphthyridin-8-yl)((3S)-3-(4-(trifluoromethyl)phenyl)-4-morpholinyl)methanone], the half-inhibitory concentration (IC50) in the assay on HCT116 WT cells (setting [1]) stood at 5.02 µM; with HCT116 MTAP null cells (setting [2]) it was 100 nM.

Take `C[C@H]1COC[C@@H](c2ccc(C(F)(F)F)cn2)N1C(=O)c1cc2c3c(c(N)nc2cn1)COC3` (racemic) [Example 339, (4-amino-1,3-dihydrofuro[3,4-c][1,7]naphthyridin-8-yl)((3R,5S)-3-methyl-5-(5-(trifluoromethyl)-2-pyridinyl)-4-morpholinyl)methanone and (4-amino-1,3-dihydrofuro[3,4-c][1,7]naphthyridin-8-yl)((3S,5R)-3-methyl-5-(5-(trifluoromethyl)-2-pyridinyl)-4-morpholinyl)methanone]: the half-maximal inhibitory concentration (IC50) is 0.497 µM with HCT116 WT cells (setting [1]) and 20 nM in the assay with HCT116 MTAP null cells (setting [2]).

Take `Nc1nc2cnc(C(=O)N3CCOC[C@@H]3c3ccc(OC(F)F)cn3)cc2c2c1COC2` [Example 516, (4-amino-1,3-dihydrofuro[3,4-c][1,7]naphthyridin-8-yl)((3S)-3-(5-(difluoromethoxy)-2-pyridinyl)-4-morpholinyl)methanone]: the IC50 in the assay with HCT116 WT cells (setting [1]) worked out at 9.12 µM; in the assay with HCT116 MTAP null cells (setting [2]), 211 nM.

As to `Cc1ccc(C2COCCN2C(=O)c2ccc3nc(N)c4c(c3c2)COC4)cn1` (racemic) [Example 512, (4-amino-1,3-dihydrofuro[3,4-c]quinolin-8-yl)-[rac-(3R)-3-(6-methyl-3-pyridyl)morpholin-4-yl]methanone], the half-inhibitory concentration (IC50) was greater than 10 µM in the assay on HCT116 WT cells (setting [1]) and greater than 1000 nM in the assay with HCT116 MTAP null cells (setting [2]).

In the case of `Cn1ncc2c(N)nc3cc(F)c(C(=O)N4CC(c5ccc(C(F)(F)F)cn5)C4)cc3c21` [Example 428, (4-amino-7-fluoro-1-methyl-1H-pyrazolo[4,3-c]quinolin-8-yl)(3-(5-(trifluoromethyl)-2-pyridinyl)-1-azetidinyl)methanone], the IC50 in the assay with HCT116 WT cells (setting [1]) was determined as 8.4 µM; with HCT116 MTAP null cells (setting [2]) it was 74 nM.

For `C[C@H]1COC[C@@H](c2ccc(C(F)(F)F)cn2)N1C(=O)c1cc2c3c(c(N)nc2cc1F)COC3` (mixture of isomers) [Example 304, (4-amino-7-fluoro-1,3-dihydrofuro[3,4-c]quinolin-8-yl)((3R,5S)-3-methyl-5-(5-(trifluoromethyl)-2-pyridinyl)-4-morpholinyl)methanone and (4-amino-7-fluoro-1,3-dihydrofuro[3,4-c]quinolin-8-yl)((3S,5R)-3-methyl-5-(5-(trifluoromethyl)-2-pyridinyl)-4-morpholinyl)methanone], the half-inhibitory concentration (IC50) was found to be 0.572 µM with HCT116 WT cells (setting [1]) and 710 nM with HCT116 MTAP null cells (setting [2]).

`CC[C@@H]1CN(C(=O)c2ccc3nc(N)c4c(c3c2)CO[C@@H]4C)C[C@H]1c1ccc(C)cc1` (single isomer, unassigned) [Example 461]: the figures for the IC50 with HCT116 WT cells (setting [1]) and in the assay with HCT116 MTAP null cells (setting [2]) were 14.6 µM and 864 nM, respectively.

Regarding `Cn1ncc2c(N)nc3cc(Cl)c(C(=O)N4CC(c5ccc(C(F)(F)F)cn5)C4)cc3c21` [Example 442, (4-amino-7-chloro-1-methyl-1H-pyrazolo[4,3-c]quinolin-8-yl)(3-(5-(trifluoromethyl)-2-pyridinyl)-1-azetidinyl)methanone], the 50% inhibitory concentration (IC50) amounted to 3.61 µM in the assay on HCT116 WT cells (setting [1]) and 40 nM in the assay with HCT116 MTAP null cells (setting [2]).

On to `Nc1nc2cc(F)c(C(=O)N3CCOCC3c3ccnc(C(F)(F)F)c3)cc2c2c1COC2` (racemic) [Example 352, (4-amino-7-fluoro-1,3-dihydrofuro[3,4-c]quinolin-8-yl)((3R)-3-(2-(trifluoromethyl)-4-pyridinyl)-4-morpholinyl)methanone and (4-amino-7-fluoro-1,3-dihydrofuro[3,4-c]quinolin-8-yl)((3S)-3-(2-(trifluoromethyl)-4-pyridinyl)-4-morpholinyl)methanone], for which the figures for the IC50 in the assay on HCT116 WT cells (setting [3]) and in the assay with HCT116 MTAP null cells (setting [4]) were 20.7 µM and 717 nM, respectively.

As to `C[C@H]1OCc2c1c(N)nc1ccc(C(=O)N3CCOC[C@H]3c3ccc(F)c(C(F)(F)F)c3)cc21` (racemic) [Example 374, ((3R)-4-amino-3-methyl-1,3-dihydrofuro [3,4-c]quinolin-8-yl)((3R)-3-(4-fluoro-3-(trifluoromethyl)phenyl)-4-morpholinyl)methanone and ((3R)-4-amino-3-methyl-1,3-dihydrofuro[3,4-c]quinolin-8-yl)((3S)-3-(4-fluoro-3-(trifluoromethyl)phenyl)-4-morpholinyl)methanone], the results for the IC50 in the assay with HCT116 WT cells (setting [1]) and with HCT116 MTAP null cells (setting [2]) were 9.89 µM and 161 nM, respectively.

Consider `C[C@H]1OCc2c1c(N)nc1cnc(C(=O)N3CCOC[C@@H]3c3ccc(OC(F)(F)F)cc3)cc21` (single isomer, unassigned) [Example 619], for which the figures for the IC50 with HCT116 WT cells (setting [1]) and with HCT116 MTAP null cells (setting [2]) were 1.98 µM and 49 nM, respectively.

`Nc1nc2ccc(C(=O)N3CCOCC3c3cccc(F)c3)cc2c2c1COC2` (racemic) [Example 364, (4-amino-1,3-dihydrofuro[3,4-c]quinolin-8-yl)-[rac-(3S)-3-(3-fluorophenyl)morpholin-4-yl]methanone]: the values for the IC50 with HCT116 WT cells (setting [1]) and in the assay on HCT116 MTAP null cells (setting [2]) were greater than 10 µM and 3480 nM, respectively.

With `Cn1ncc2c3cc(C(=O)N4CCOCC4c4ccc(C(F)(F)F)cc4)ccc3nc(N)c21` (racemic) [Example 497, (4-amino-3-methyl-3H-pyrazolo[3,4-c]quinolin-8-yl)((3R)-3-(4-(trifluoromethyl)phenyl)-4-morpholinyl)methanone and (4-amino-3-methyl-3H-pyrazolo[3,4-c]quinolin-8-yl)((3S)-3-(4-(trifluoromethyl)phenyl)-4-morpholinyl)methanone], the concentration for half-maximal inhibition (IC50) was 26 µM in the assay on HCT116 WT cells (setting [1]) and 477 nM in the assay on HCT116 MTAP null cells (setting [2]).

As to `Nc1nc2cc(Cl)c(C(=O)N3CCOCC3c3ccc(F)c(C(F)(F)F)c3)cc2c2c1COC2` (racemic) [Example 350, (4-amino-7-chloro-1,3-dihydrofuro[3,4-c]quinolin-8-yl)((3R)-3-(4-fluoro-3-(trifluoromethyl)phenyl)-4-morpholinyl)methanone and (4-amino-7-chloro-1,3-dihydrofuro[3,4-c]quinolin-8-yl)((3S)-3-(4-fluoro-3-(trifluoromethyl)phenyl)-4-morpholinyl)methanone], the figures for the concentration for half-maximal inhibition (IC50) in the assay on HCT116 WT cells (setting [3]) and in the assay with HCT116 MTAP null cells (setting [4]) were 2.89 µM and 107 nM, respectively.

For the compound `Cn1ncc2c(N)nc3ccc(C(=O)N4CC[C@H](c5ccc(C(F)(F)F)cc5)C4)cc3c21` [Example 425, (4-amino-1-methyl-1H-pyrazolo[4,3-c]quinolin-8-yl)((3R)-3-(4-(trifluoromethyl)phenyl)-1-pyrrolidinyl)methanone], the IC50 in the assay with HCT116 WT cells (setting [1]) is 4.4 µM; in the assay on HCT116 MTAP null cells (setting [2]) it was 147 nM.

For `Nc1nc2cnc(C(=O)N3CC[S+]([O-])C[C@@H]3c3ccc(C(F)(F)F)cc3)cc2c2c1COC2` (stereo partly drawn) [Example 623, (4-Amino-1,3-dihydrofuro[3,4-c][1,7]naphthyridin-8-yl)((3S)-1-oxido-3-(4-(trifluoromethyl)phenyl)thiomorpholino)methanone], the concentration for half-maximal inhibition (IC50) in the assay with HCT116 WT cells (Homo sapiens, HCT-116, 144 h) came to 25.7 µM; in the assay on HCT116 MTAP null cells (HCT116-MTAP null, 144 h), 843 nM.

Regarding `Nc1nc2ccc(C(=S)N3CCOC[C@@H]3c3ccc(C(F)(F)F)cc3)cc2c2c1COC2` [Example 625, (S)-(4-amino-1,3-dihydrofuro[3,4-c]quinolin-8-yl)(3-(4-(trifluoromethyl)phenyl)morpholino)methanethione], the IC50 was 7.26 µM with HCT116 WT cells (setting [1]) and 882 nM with HCT116 MTAP null cells (setting [2]).

In the case of `Nc1nc2cc(Cl)c(C(=O)N3CCOCC3c3ccc(F)c(OC(F)(F)F)c3)cc2c2c1COC2` (racemic) [Example 346, (4-amino-7-chloro-1,3-dihydrofuro[3,4-c]quinolin-8-yl)((3R)-3-(4-fluoro-3-(trifluoromethoxy)phenyl)-4-morpholinyl)methanone and (4-amino-7-chloro-1,3-dihydrofuro[3,4-c]quinolin-8-yl)((3S)-3-(4-fluoro-3-(trifluoromethoxy)phenyl)-4-morpholinyl)methanone], the IC50 in the assay on HCT116 WT cells (setting [1]) worked out at 1.95 µM; with HCT116 MTAP null cells (setting [2]) it was 62 nM.

As for `C[C@@H]1COC[C@H](c2ccc(OC(F)F)nn2)N1C(=O)c1cc2c3c(c(N)nc2cn1)COC3` [Example 554, (4-amino-1,3-dihydrofuro[3,4-c][1,7]naphthyridin-8-yl)((3S,5R)-3-(6-(difluoromethoxy)-3-pyridazinyl)-5-methyl-4-morpholinyl)methanone], the IC50 in the assay with HCT116 WT cells (setting [1]) is 1.1 µM; in the assay with HCT116 MTAP null cells (setting [2]), 28 nM.
